Measurements published in paper PMC11279807, “Modulation of the Antimelanoma Activity Imparted to Artemisinin Hybrids by the Monoterpene Counterpart” (Molecules, 2024).
Read-outs that look alike come from different tables or passages of the source.

Assays:
C3PV = assay: MTT cell viability assay on normal fibroblasts C3PV; assay type: cell-based, human; conditions: 24 h treatment, triplicates, read-out: IC50 (µM ± SD) C3PV
Procedure: (§1) The primary human healthy fibroblast C3PV cell line was grown in a culture medium containing 50% Dulbecco Modified Medium (DMEM) and 50% Ham’s F10 supplemented with 10% Fetal Bovine Serum (FBS). […] To all growing media were added 1% Pen/Strep and 1% Glutamine.
To study the effect of artemisinin derivatives on cell viability, MTT assay was performed. Briefly, C3PV, WM115, and WM266 cell lines were seeded in 96-well plates (3000 cells/well in 100 μL of medium) 24 h before treatment and incubated overnight to allow for cell adherence. […] The analyses of cell viability were performed at the end of the treatment. Triplicates were made in all experiments. After 24 h of treatment with newly synthesized compounds, the culture medium was replaced with a solution containing 0.5 mg/mL of MTT. After 3 h of incubation in an incubator, the medium was removed, and a lysis solution (10% SDS, 0.6% acetic acid in DMSO) was added to dissolve the formazan crystals. Optical density measurements were performed with a microplate reader EPOCH/2 (Biotek) with 630 nm (background) and a 570 nm filters.
(§2) The IC50 values were determined via non-linear regression, using the GraphPad Prism software package version 8 (GraphPad Software, San Diego, CA, USA). Results were expressed as means of IC50 values ± SD. The TSI values were calculated using the following formula: […]

WM115 = assay: MTT cell viability assay on primary melanoma cell line WM115; assay type: cell-based, human; conditions: for IC50: primary melanoma WM115, MTT, 24 h treatment, triplicates, read-out: IC50 (µM ± SD) WM115; for TSI WM115: tumor selectivity index = IC50 on C3PV / IC50 on WM115
Procedure: as §1
(§3) To study the effect of artemisinin derivatives on cell viability, MTT assay was performed. Briefly, C3PV, WM115, and WM266 cell lines were seeded in 96-well plates (3000 cells/well in 100 μL of medium) 24 h before treatment and incubated overnight to allow for cell adherence. Afterward, the medium was replaced with a fresh one containing the appropriate dose of newly synthesized compounds (doses ranging from 0.01 to 1 μM were used for 24 h). The analyses of cell viability were performed at the end of the treatment. Triplicates were made in all experiments. After 24 h of treatment with newly synthesized compounds, the culture medium was replaced with a solution containing 0.5 mg/mL of MTT. After 3 h of incubation in an incubator, the medium was removed, and a lysis solution (10% SDS, 0.6% acetic acid in DMSO) was added to dissolve the formazan crystals. Optical density measurements were performed with a microplate reader EPOCH/2 (Biotek) with 630 nm (background) and a 570 nm filters.
as §2

WM266 [1] = assay: MTT cell viability assay on metastatic melanoma cell line WM266; assay type: cell-based, human; conditions: for IC50: Homo sapiens; for TSI WM266: tumor selectivity index = IC50 on C3PV / IC50 on WM266
Procedure: as §1, §3, §2

WM266 [2] = assay: Cell viability assay in the presence or absence of DFO on WM266; assay type: cell-based; conditions: Homo sapiens, treatment time 48 h
Source text: To obtain information about the mode of action of compounds 9c, 9f, 10b, and 10f, we repeated the cell viability assays on the metastatic cancer line WM266 in the presence of the Fe^2+ chelating agent deferoxamine (DFO). As mentioned above, Fe^2+ ions trigger endoperoxide bridge opening of the sesquiterpene counterpart by Fenton-like mechanisms, leading to the formation of carbon- and oxygen-centered radicals. Usually, this in cell formation of single-electron reactive species seems to be responsible for the biological activity of ART and its semisynthetic and hybrid derivatives. Sequestration of Fe^2 by DFO generally reduces the efficacy of the compounds studied.
DFO was used to study the mode of action of compounds 9c, 9f, 10b, and 10f on WM266 cell line. Twenty-four hours before treatment, cells were seeded in 96-well plates and incubated overnight. Then, cells were pre-treated with 20 μM of DFO for 1 h. After this time, two washes with PBS were performed, and, subsequently, fresh medium containing different doses of the opportune compound was added for 48h. The analyses of cell viability were performed at the end of treatment, and triplicates were made in all experiments.

[3] = Stability by NMR analyses after heating; assay type: physicochemical; conditions: after heating at 45 and 100 °C for 8 and 2 h, respectively
Procedure: Based on cellular results, hybrids 9c, 9f, 10b, and 10f were selected for further studies. Their stability was evaluated by NMR analyses after heating them at 45 and 100 °C for 8 and 2 h, respectively (Supplementary Materials S1).

melanoma = conditions: metastatic melanoma drug; cited from earlier work
[4] = WM266, 24 h, metastatic melanoma WM266, MTT, 24 h treatment, triplicates, read-out: IC50 (µM ± SD) WM266
[5] = WM266, reference hybrid on WM266, as printed in Table 2, read-out: IC50 ± SD R.H.
[6] = WM266, pre-treated with 20 μM DFO for 1 h, read-out: IC50 ± SD WM266 with DFO
[7] = WM266, without DFO, read-out: IC50 ± SD WM266 without DFO

| IC50 (WM115; Homo sapiens, WM-115, 24 h) [µM] | IC50 (WM266 [1]; [4]) [µM] | IC50 (WM266 [1]; [5]) [µM] | decomposition by 1H NMR [3] | IC50 (WM115) [µM] | SMILES | IC50 (C3PV; Homo sapiens, C3PV, 24 h) [µM] | TSI WM115 (WM115) | TSI WM266 (WM266 [1]) | IC50 (WM266 [2]; [6]) [nM] | IC50 (WM266 [2]; [7]) [nM] | IC50 (C3PV) [µM] | IC50 (melanoma) [nM] |
| --- | --- | --- | --- | --- | --- | --- | --- | --- | --- | --- | --- | --- |
| 3 ± 0.4 | 1.9 ± 0.5 | 1.9 ± 0.5 | less than 5% | – | CC(C)=CCCC(C)=CCOC1OC2OC3(C)CCC4C(C)CCC(C1C)C24OO3 (stereo not drawn) [Hybrid 9f] | 87.3 ± 2.5 | 29.1 | 45.9 | 132700 ± 400 | 1900 ± 500 | – | – |
| 0.03 ± 0.01 | 0.02 ± 0.01 | 0.02 ± 0.01 | less than 5% | – | C=C(C)C1CC=C(COC(=O)CCC(=O)OC2OC3OC4(C)CCC5C(C)CCC(C2C)C35OO4)CC1 (stereo not drawn) [Hybrid 10b] | 20.3 ± 5.5 | 676.7 | 1015.0 | 310 ± 100 | 20 ± 10 | – | – |
| – | – | 0.09 ± 0.03 | less than 5% | 0.4 ± 0.04 | CC(C)=CCCC(C)=CCOC(=O)CCC(=O)OC1OC2OC3(C)CCC4C(C)CCC(C1C)C24OO3 (stereo not drawn) [Hybrid 10f] | – | 19.8 | 87.8 | 500 ± 100 | 90 ± 30 | 7.9 ± 4.5 | – |
| – | – | – | – | – | Cn1nnc2c(C(N)=O)ncn2c1=O [temozolomide] | – | – | – | – | – | – | < 50000 |
